{
  "source": "patent US20030191147A1",
  "about": "“Opioid antagonist compositions and dosage forms” (priority 2002, published 2003)",
  "key": {"[1]": {"assay": "Binding of drug in solution to pharmaceutical excipients"}, "[2]": {"test_system": "moderate to severe pain following dental surgery", "assay": "Dose ranging clinical study of morphine 30, 60, 90 mg alone or with NTX 0.1 mg", "assay_type": "in vivo, human", "details": "30 mg, 60 mg and 90 mg MS alone compared with each other", "description": "In this dose ranging study, doses of morphine sulfate (30 mg, 60 mg, and 90 mg) in combination with naltrexone hydrochloride (0.1 mg) were administered for moderate to severe pain in male patients following dental surgery. This study was performed to investigate the efficacy of combinations of different doses of morphine with naltrexone 0.1 mg, relative to placebo and relative to morphine alone, to evaluate the dose-response effects of morphine when administered alone and when coadministered with naltrexone 0.1 mg, and to examine the consistency of effect of naltrexone 0.1 mg across different doses of morphine, when coadministered with morphine.\nThe 210 subject study was designed with seven treatment groups: A) placebo (30 pts); B) morphine 30 mg (30 pts); C) morphine 60 mg (30 pts); D) morphine 90 mg (30 pts); E) morphine 30 mg and naltrexone 0.1 mg (30 pts); F) morphine 60 mg and naltrexone 0.1 mg (30 pts); G) morphine 90 mg and naltrexone 0.1 mg (30 pts). In this study, in the treatment of moderate to severe pain following extraction of 3 or 4 full or partial bony impacted third molars, a single oral dose of one of the treatments was administered when the patient was suffering moderate to severe postoperative pain. The observation period for efficacy was 8 hours post treatment and for safety was 24 hours post treatment. […]"}, "postsurgical patients": {"test_system": "postsurgical patients", "details": "PCA/IV morphine with low dose IV antagonist; cited from earlier work"}, "[3]": {"test_system": "moderate to severe pain following dental surgery", "assay": "Dose ranging clinical study of morphine 60 mg with NTX 0.1, 0.01 or 0.001 mg, and NTX alone", "assay_type": "in vivo, human", "details": "NTX 0.01 mg alone, among treatment groups", "protocol": "In a dose ranging study, doses of morphine sulfate (60 mg) in combination with naltrexone hydrochloride (0.1 mg, 0.01 mg, or 0.001 mg) were administered for moderate to severe pain in patients following dental surgery. This study was performed to investigate the analgesic efficacy (onset, peak, duration, and total effect) of morphine alone, naltrexone alone, three different doses of naltrexone in combination with morphine and placebo.\nThe 300 subject study was designed with six treatment groups: A) placebo (50 pts); B) morphine 60 mg (50 pts); C) naltrexone 0.01 mg (50 pts); D) morphine 60 mg and naltrexone 0.1 mg (50 pts); E) morphine 60 mg and naltrexone 0.01 mg (50 pts); F) morphine 60 mg and naltrexone 0.001 mg (50 pts). In this study, in the treatment of moderate to severe pain following extraction of 3 or 4 full or partial bony impacted third molars, a single oral dose of one of the treatments was administered when the patient was suffering moderate to severe postoperative pain. The observation period for efficacy was 8 hours post treatment, and for safety was 24 hours post treatment.\nThe efficacy and safety evaluations included pain intensity, pain relief, global pain evaluation, evaluation of time to meaningful pain relief (stopwatch), visual analog scale (VAS), and adverse event assessments. For the data analysis, certain pain parameters were computed as generally described above."}, "[4]": {"test_system": "excitatory opioid receptors", "details": "mice, antagonist on the order of ng/kg with morphine or similar opioid agonists; cited from earlier work"}, "[5]": {"details": "excipients of Example 10, aqueous environment"}, "[6]": {"details": "excipients of Example 12, aqueous environment"}},
  "data": [
    {"smiles": "CN1CC[C@]23c4c5ccc(O)c4O[C@H]2[C@@H](O)C=C[C@H]3[C@H]1C5.O=S(=O)(O)O", "note": "[MS, morphine sulfate]", "values": [
      {"measurement": "binding to croscarmellose sodium", "setting": "[1]; croscarmellose sodium", "result": "also bound to this excipient"},
      {"measurement": "binding by the excipients used", "setting": "[1]; [5]", "result": "not to bind"},
      {"measurement": "binding by the excipients used", "setting": "[1]; [6]", "result": "not to bind"},
      {"measurement": "mean SPID scores", "setting": "[2]", "result": "comparable"},
      {"measurement": "mean Total Pain Relief scores", "setting": "[2]", "result": "comparable"}
    ]},
    {"smiles": "C=C1CC[C@@]2(O)[C@H]3Cc4ccc(O)c5c4[C@@]2(CCN3CC2CC2)[C@H]1O5", "note": "[nalmefene, 6-methylene-6-desoxy-N-cyclopropyl-methyl-14-hydroxydihydroxy-dihydronormorphine]", "values": [
      {"measurement": "effect on potency of morphine", "setting": "postsurgical patients", "result": "markedly enhanced potency of morphine"}
    ]},
    {"smiles": "C=CCN1CC[C@]23c4c5ccc(O)c4O[C@H]2C(=O)CC[C@@]3(O)[C@H]1C5", "note": "[naloxone, 4,5-epoxy-3,14-dihydroxy-17-(2-prophenyl)morphinan-6-one]", "values": [
      {"measurement": "effect on potency of morphine", "setting": "postsurgical patients", "result": "markedly enhanced potency of morphine"}
    ]},
    {"smiles": "Cl.O=C1CC[C@@]2(O)[C@H]3Cc4ccc(O)c5c4[C@@]2(CCN3CC2CC2)[C@H]1O5", "note": "[naltrexone hydrochloride, 17-cyclopropylmethyl-4,5α-epoxy-3,14-dihydroxymorphinan-6-one hydrochloride]", "values": [
      {"measurement": "fraction of drug bound by croscarmellose sodium", "setting": "[1]; drug in solution mixed with croscarmellose sodium in suspension", "result": "more than 90%"},
      {"measurement": "binding by the excipients used", "setting": "[1]; [5]", "result": "not to bind"},
      {"measurement": "binding by the excipients used", "setting": "[1]; [6]", "result": "not to bind"},
      {"measurement": "global evaluation scores", "setting": "[3]", "result": "highest number of subjects who had “poor” global evaluation scores"},
      {"measurement": "mean 4 hour Sum of Pain Intensity Difference (SPID) scores", "setting": "[3]", "result": "lowest"},
      {"measurement": "mean Total Pain Relief scores", "setting": "[3]", "result": "lowest"},
      {"measurement": "effect on analgesic potency of opioid agonists", "setting": "[4]", "result": "markedly enhancing the analgesic potency of opioid agonists"}
    ]}
  ]
}
